Experimental data taken from patent publication US10052320B2, “Substituted quinoxalines as FGFR kinase inhibitors” (ASTEX THERAPEUTICS LIMITED, priority 2011, dated 2018).
Read-outs that look alike come from different tables or passages of the source.

Key:
[1] = tested on: Ba/F3-Flt3-transfected cells in the presence of 10 ng/ml murine IL3; assay: Ba/F3-Flt3 (plus IL3) cellular proliferation counterscreen, Alamar Blue; assay type: cell-based; settings: for IC50: Mus musculus, read-out: BAF3-FLT3 (PLUS IL3) 384 well pIC50 (converted)
[2] = molecular target: Ba/F3-KDR-transfected cells (Homo sapiens, UniProt P35968); assay: Ba/F3-KDR (minus IL3) cellular proliferation assay, Alamar Blue; assay type: cell-based
Method in brief: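 Fluorescence (ex 540, em 590 nm) from resazurin reduction, read after 4 h with Alamar Blue, reports viability of Ba/F3-KDR cells after 24 h of compound treatment at 37 °C. Counterscreen wells also contained 10 ng/ml murine IL3.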

FGFR2 (h) = FGFR2 (h) (Homo sapiens, UniProt P21802); assay: FGFR2 (enzymatic assay), TR-FRET; assay type: biochemical; settings: read-out: FGFR 2 pIC50 (converted)
Experimental: In a final reaction volume of 30 μL, FGFR2 (h) (150 ng/ml) was incubated with 50 mM HEPES pH 7.5, 6 mM MnCl2, 1 mM DTT, 0.1 mM Na3VO4, 0.01% Triton-X-100, 500 nM Btn-Flt3 and 0.4 μM ATP in the presence of compound (1% DMSO final). […] Time-Resolved Fluorescence Resonance Energy Transfer (TR-FRET) signal (ex340 nm. Em 620 nm, em 655 nm) was measured afterwards and results are expressed in (Relative Fluorescence Units).

FGFR4 (h) = FGFR4 (h) (Homo sapiens, UniProt P22455); assay: FGFR4 (enzymatic assay), TR-FRET; assay type: biochemical; settings: read-out: FGFR 4 pIC50 (converted)
Experimental: In a final reaction volume of 30 μL, FGFR4 (h) (60 ng/ml) was incubated with 50 mM HEPES pH 7.5, 6 mM MnCl2, 1 mM DTT, 0.1 mM Na3VO4, 0.01% Triton-X-100, 500 nM Btn-Flt3 and 5 μM ATP in the presence of compound (1% DMSO final). […] Time-Resolved Fluorescence Resonance Energy Transfer (TR-FRET) signal (ex340 nm. Em 620 nm, em 655 nm) was measured afterwards and results are expressed in RFU (Relative Fluorescence Units).

[3] = molecular target: Ba/F3-FGFR4-transfected cells (Homo sapiens, UniProt P22455); assay: Ba/F3-FGFR4 cellular proliferation assay, Alamar Blue; assay type: cell-based
Method in brief: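 Ba/F3 cells transfected with FGFR4, 20000 cells/well in phenol red-free RPMI-1640 with 10% FBS, were exposed to compound for 24 h at 37° C, 5% CO2. Alamar Blue (resazurin) was then added for 4 h, and fluorescence was read at ex 540/em 590 nm.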

Ba/F3-FGFR4-transfected cells, sequence (P22455 whole entry, change not shown): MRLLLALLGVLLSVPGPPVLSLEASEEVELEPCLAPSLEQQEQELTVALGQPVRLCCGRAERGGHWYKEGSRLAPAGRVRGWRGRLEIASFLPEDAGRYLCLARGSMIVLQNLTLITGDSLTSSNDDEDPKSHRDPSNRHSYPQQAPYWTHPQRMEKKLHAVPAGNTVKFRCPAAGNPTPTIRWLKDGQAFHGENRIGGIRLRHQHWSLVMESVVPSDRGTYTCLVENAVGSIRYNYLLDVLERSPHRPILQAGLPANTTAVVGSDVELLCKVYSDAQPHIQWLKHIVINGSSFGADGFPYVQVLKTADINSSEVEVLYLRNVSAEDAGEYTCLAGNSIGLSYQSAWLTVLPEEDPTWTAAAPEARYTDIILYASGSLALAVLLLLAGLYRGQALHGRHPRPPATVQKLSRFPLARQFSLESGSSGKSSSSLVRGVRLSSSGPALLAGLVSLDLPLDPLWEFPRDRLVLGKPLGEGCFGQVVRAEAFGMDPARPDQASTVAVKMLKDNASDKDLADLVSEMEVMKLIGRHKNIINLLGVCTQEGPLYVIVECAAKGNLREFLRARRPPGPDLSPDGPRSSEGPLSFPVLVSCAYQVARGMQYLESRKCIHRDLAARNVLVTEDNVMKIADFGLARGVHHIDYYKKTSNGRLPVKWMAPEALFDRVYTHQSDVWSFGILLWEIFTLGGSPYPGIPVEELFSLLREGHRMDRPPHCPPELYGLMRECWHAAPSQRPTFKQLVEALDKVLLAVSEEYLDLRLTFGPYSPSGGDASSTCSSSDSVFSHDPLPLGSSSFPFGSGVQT
FGFR2 (h), sequence (P21802 22-821): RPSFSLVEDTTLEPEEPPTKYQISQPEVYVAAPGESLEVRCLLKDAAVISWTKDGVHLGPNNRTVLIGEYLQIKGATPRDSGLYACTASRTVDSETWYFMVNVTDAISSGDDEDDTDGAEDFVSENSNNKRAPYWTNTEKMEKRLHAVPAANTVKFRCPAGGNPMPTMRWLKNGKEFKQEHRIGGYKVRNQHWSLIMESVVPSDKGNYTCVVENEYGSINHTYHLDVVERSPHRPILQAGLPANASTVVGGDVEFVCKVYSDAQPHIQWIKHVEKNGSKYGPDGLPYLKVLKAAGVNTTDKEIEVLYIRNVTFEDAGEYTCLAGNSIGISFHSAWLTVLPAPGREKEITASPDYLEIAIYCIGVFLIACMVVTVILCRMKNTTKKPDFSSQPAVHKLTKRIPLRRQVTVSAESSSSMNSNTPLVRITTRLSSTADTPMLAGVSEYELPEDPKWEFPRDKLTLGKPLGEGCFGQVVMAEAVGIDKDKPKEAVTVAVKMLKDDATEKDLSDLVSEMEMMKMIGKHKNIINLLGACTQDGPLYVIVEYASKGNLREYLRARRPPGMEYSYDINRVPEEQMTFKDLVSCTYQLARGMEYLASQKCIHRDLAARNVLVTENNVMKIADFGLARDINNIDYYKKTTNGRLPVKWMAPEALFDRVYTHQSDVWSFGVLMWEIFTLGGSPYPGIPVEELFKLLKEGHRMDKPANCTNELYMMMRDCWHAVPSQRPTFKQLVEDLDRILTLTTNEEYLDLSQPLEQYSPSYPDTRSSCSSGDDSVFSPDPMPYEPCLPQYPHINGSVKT
FGFR4 (h), sequence (P22455 22-802): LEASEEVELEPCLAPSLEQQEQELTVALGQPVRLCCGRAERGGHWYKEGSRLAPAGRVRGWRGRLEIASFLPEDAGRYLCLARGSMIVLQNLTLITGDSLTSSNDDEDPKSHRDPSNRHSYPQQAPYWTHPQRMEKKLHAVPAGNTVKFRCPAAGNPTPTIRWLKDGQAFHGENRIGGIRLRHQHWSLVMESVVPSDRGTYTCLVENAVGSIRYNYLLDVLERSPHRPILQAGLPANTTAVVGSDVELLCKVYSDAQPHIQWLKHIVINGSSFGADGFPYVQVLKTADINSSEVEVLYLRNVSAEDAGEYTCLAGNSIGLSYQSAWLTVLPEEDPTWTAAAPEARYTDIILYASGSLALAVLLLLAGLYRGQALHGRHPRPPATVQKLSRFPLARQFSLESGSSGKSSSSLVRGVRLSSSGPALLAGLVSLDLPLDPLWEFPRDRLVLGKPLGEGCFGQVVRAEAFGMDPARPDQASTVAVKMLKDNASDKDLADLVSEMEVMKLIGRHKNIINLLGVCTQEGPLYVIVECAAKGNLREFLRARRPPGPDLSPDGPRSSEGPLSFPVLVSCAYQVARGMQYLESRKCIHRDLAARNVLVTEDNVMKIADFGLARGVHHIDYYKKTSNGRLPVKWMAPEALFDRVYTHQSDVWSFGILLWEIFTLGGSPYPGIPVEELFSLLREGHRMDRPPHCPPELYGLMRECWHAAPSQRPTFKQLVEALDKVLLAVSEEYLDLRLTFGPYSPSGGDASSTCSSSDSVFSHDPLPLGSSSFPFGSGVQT
Ba/F3-KDR-transfected cells, sequence (P35968 whole entry, change not shown): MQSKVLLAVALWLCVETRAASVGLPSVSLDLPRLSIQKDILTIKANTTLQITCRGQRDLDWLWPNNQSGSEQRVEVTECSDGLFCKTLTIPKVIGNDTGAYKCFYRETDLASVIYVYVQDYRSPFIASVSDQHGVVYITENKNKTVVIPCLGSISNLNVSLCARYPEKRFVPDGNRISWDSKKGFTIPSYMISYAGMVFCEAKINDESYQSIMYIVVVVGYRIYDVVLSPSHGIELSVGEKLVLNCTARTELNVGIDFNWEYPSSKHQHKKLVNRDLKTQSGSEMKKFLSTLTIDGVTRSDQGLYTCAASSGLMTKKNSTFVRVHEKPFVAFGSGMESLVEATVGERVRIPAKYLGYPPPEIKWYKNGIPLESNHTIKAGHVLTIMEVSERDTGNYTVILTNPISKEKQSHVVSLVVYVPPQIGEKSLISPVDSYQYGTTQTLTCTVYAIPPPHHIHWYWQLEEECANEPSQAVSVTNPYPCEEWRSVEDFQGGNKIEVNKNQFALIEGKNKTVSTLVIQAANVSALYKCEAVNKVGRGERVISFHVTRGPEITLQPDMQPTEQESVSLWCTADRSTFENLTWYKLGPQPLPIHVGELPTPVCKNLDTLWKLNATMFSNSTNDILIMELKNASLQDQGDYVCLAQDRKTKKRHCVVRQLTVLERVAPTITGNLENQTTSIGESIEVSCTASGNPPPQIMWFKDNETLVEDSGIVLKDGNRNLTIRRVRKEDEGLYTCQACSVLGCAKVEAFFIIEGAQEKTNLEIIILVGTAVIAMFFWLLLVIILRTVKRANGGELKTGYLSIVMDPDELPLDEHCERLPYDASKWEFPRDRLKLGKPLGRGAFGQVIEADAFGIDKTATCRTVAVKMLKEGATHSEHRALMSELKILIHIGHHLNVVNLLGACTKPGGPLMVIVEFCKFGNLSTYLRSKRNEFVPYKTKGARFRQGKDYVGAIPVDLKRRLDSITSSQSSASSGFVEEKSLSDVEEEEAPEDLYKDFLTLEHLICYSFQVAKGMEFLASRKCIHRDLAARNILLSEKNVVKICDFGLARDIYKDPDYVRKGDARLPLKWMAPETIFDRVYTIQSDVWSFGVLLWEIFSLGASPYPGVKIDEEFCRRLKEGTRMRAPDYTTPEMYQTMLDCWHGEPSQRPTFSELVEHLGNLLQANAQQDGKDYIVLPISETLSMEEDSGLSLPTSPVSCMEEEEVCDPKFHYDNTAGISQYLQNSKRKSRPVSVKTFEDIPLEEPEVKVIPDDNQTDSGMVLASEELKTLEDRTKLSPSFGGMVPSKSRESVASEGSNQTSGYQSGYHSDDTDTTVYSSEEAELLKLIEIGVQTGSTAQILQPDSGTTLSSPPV

Row | SMILES | BAF3-KDR (MIN IL3) 384 well pIC50 ([2]; minus IL3) | melting point [°C] | IC50 (FGFR2 (h)) [nM] | IC50 (FGFR4 (h)) [nM] | BAF3-FGFR4 pIC50 [3] | BAF3-KDR (MIN IL3) 384 well pIC50 ([2]; minus IL3, 384 well) | BAF3-KDR (MIN IL3) 96 well pIC50 ([2]; minus IL3) | IC50 ([1]; plus 10 ng/ml murine IL3) [nM] | BAF3-FLT3 (PLUS IL3) 384 well pIC50 ([1]; plus 10 ng/ml murine IL3) | IC50 ([1]; plus IL3, 384 well) [nM]
1 | COCCCN(c1cc(OC)cc(OC)c1)c1ccc2ncc(-c3ccn(C)c3)nc2c1 [Compound 3] | 5.07 | – | 19.5 | 38.9 | 6.4 | – | – | > 10000 | – | –
2 | COc1cc(OC)cc(N(CCNC(C)C)c2ccc3ncc(-c4ccn(C)c4)nc3c2)c1 [Compound 8] | 6.19 | – | 2.63 | 3.47 | 7.2 | – | – | > 10000 | – | –
3 | COc1cc(OC)cc(N(CC2CC2)c2ccc3ncc(-c4ccnn4C)nc3c2)c1 [Compound 18] | <5 | 132 | – | – | – | – | – | > 10000 | – | –
4 | COc1cc(OC)cc(N(CC2CC2)c2ccc3ncc(-c4ccc5c(ccn5C)c4)nc3c2)c1 [Compound 20] | – | – | – | – | – | <5 | – | – | – | > 10000
5 | COc1cc(OC)cc(N(CC2CC2)c2ccc3ncc(-c4cn(C)cn4)nc3c2)c1 [Compound 21] | <5 | 136 | – | – | – | – | <5 | > 10000 | – | –
6 | COc1cc(OC)cc(N(CC2CC2)c2ccc3ncc(-n4ccnc4C)nc3c2)c1 [Compound 32] | <5 | – | 575 | > 1000 | <5 | – | – | > 10000 | – | –
7 | COc1cc(OC)cc(N(CC2CC2)c2ccc3ncc(-c4ccn(CCO)c4)nc3c2)c1 [Compound 56] | ~5 | 143 | – | – | – | – | 5.29 | > 10000 | – | –
8 | COc1cc(OC)cc(N(CC2CC2)c2ccc3ncc(Nc4cnn(C)c4)nc3c2)c1 [Compound 61] | <5 | 160 | – | – | – | – | – | > 10000 | – | –
9 | COc1cc(OC)cc(N(CC2CC2)c2ccc3ncc(-c4cnn(C)n4)nc3c2)c1 [Compound 70] | <5 | 129 | – | – | – | – | <5 | > 10000 | – | –
10 | COc1cc(OC)cc(N(CC2CC2)c2ccc3ncc(-c4cn(C)nn4)nc3c2)c1 [Compound 71] | <5 | 141 | – | – | – | – | <5 | > 10000 | – | –
11 | COc1cc(OC)cc(N(CC2CC2)c2ccc3ncc(-c4ccn(C)c4)nc3c2)c1 [Compound 73] | 5.07 | 110 | – | – | – | – | <5 | > 10000 | – | –
12 | CNCCN(c1cc(OC)cc(OC)c1)c1ccc2ncc(-c3ccc(NC(=O)OC(C)(C)C)nc3)nc2c1 [Compound 81] | 5.62 | 182 | 5.5 | 63.1 | 5.9 | – | – | – | – | –
13 | COc1cc(OC)cc(N(CC2CC2)c2ccc3ncc(-c4nnn(C)n4)nc3c2)c1 [Compound 82] | <5 | 143 | 229 | > 1000 | <5 | – | <5 | – | – | –
14 | COc1cc(OC)cc(N(CC2CC2)c2ccc3ncc(C(=O)NCCN4CCOCC4)nc3c2)c1 [Compound 96] | <5 | 112 | ~912 | > 1000 | <5 | – | – | – | – | –
15 | COc1cc(OC)cc(N(CC2CC2)c2ccc3ncc(-c4nccs4)nc3c2)c1 [Compound 97] | <5 | 148 | 2000 | 1050 | <5 | – | – | – | – | –
16 | COc1cc(OC)cc(N(CC2CC2)c2ccc3ncc(Nc4nccs4)nc3c2)c1 [Compound 98] | <5 | 213 | 676 | > 1000 | <5 | – | – | – | – | –
17 | COc1cc(OC)cc(N(CC2CC2)c2ccc3ncc(C(=O)NCc4ccc(F)cc4)nc3c2)c1 [Compound 101] | <5 | 140 | > 1000 | > 1000 | <5 | – | – | – | – | –
18 | COc1cc(OC)cc(N(CC2CC2)c2ccc3ncc(Nc4nncs4)nc3c2)c1 [Compound 102] | <5 | 260 | > 1000 | > 1000 | <5 | – | – | – | – | –
19 | COc1cc(OC)cc(N(CC2CC2)c2ccc3ncc(-n4cnc(CO)c4)nc3c2)c1 [Compound 105] | <5 | 154 | 40.7 | 132 | 5.53 | – | – | – | – | –
20 | CNC(=O)c1cc(-c2cnc3ccc(N(CCN4CCCC4CO)c4cc(OC)cc(OC)c4)cc3n2)ccn1 (stereo not shown) [Compound 109] | – | 172 | 6.31 | 251 | 6.2 | – | – | – | – | –
21 | COc1cc(OC)cc(N(CCCO)c2ccc3ncc(-c4ccc(N5CCOCC5)nc4)nc3c2)c1 [Compound 124] | 5.11 | – | – | 33.1 | 6.1 | – | – | > 10000 | – | –
22 | COc1cc(OC)cc(N(CCCO)c2ccc3ncc(-c4ccc(N(C)C(=O)OC(C)(C)C)nc4)nc3c2)c1 [Compound 125] | <5 | 143 | 309 | 174 | <5 | – | – | – | – | –
23 | COc1cc(OC)cc(N(CCCO)c2ccc3ncc(-c4ccnc(C(=O)NCCCCN)c4)nc3c2)c1 [Compound 126] | <5 | 130 | 33.1 | 117 | 5.1 | – | – | – | – | –

Further lines, with some results ahead:

Row | BAF3-KDR (MIN IL3) 384 well pIC50 ([2]; minus IL3) | melting point [°C] | IC50 (FGFR2 (h)) [nM] | IC50 (FGFR4 (h)) [nM] | BAF3-FGFR4 pIC50 [3] | BAF3-KDR (MIN IL3) 384 well pIC50 ([2]; minus IL3, 384 well) | BAF3-KDR (MIN IL3) 96 well pIC50 ([2]; minus IL3) | SMILES | IC50 ([1]; plus 10 ng/ml murine IL3) [nM] | BAF3-FLT3 (PLUS IL3) 384 well pIC50 ([1]; plus 10 ng/ml murine IL3) | IC50 ([1]; plus IL3, 384 well) [nM]
24 | <5 | – | – | – | – | – | – | COc1cc(OC)cc(N(CC(OC(C)=O)C(F)(F)F)c2ccc3ncc(-c4cccnc4)nc3c2)c1 (single isomer, unassigned) [Compound 45] | > 10000 | – | –
25 | <5 | 211 | – | – | – | – | – | COc1cc(OC)cc(N(CC(O)C(F)(F)F)c2ccc3ncc(-c4cccnc4)nc3c2)c1 (single isomer, unassigned) [Compound 53] | > 10000 | – | –
26 | <5 | 210 | – | – | – | – | – | COc1cc(OC)cc(N(CC(O)C(F)(F)F)c2ccc3ncc(-c4cccnc4)nc3c2)c1 (single isomer, unassigned) [Compound 54] | – | <5 | –
27 | <5 | 180 | – | – | – | – | – | COc1cc(OC)cc(N(CC(OC(C)=O)C(F)(F)F)c2ccc3ncc(-c4cccnc4)nc3c2)c1 (single isomer, unassigned) [Compound 75] | – | <5 | –
28 | 5.56 | – | 5.89 | 23.4 | 6.6 | – | – | COc1cc(OC)cc(N(CCNC(C)C)c2ccc3ncc(-c4cccnc4)nc3c2)c1 [Compound 10] | 9330 | – | –
29 | <5 | – | – | – | – | – | <5 | COc1cc(OC)cc(N(CC2CC2)c2ccc3ncc(-c4cc[nH]c4)nc3c2)c1 [Compound 36] | > 10000 | – | –
30 | <5 | 141 | > 1000 | > 1000 | <5 | – | – | COc1cc(OC)cc(N(CC2CC2)c2ccc3ncc(-c4cccn4C)nc3c2)c1 [Compound 103] | – | – | –
31 | 5.335 | 160 | 5.82 | 19.5 | 6.3 | – | – | COc1cc(OC)cc(N(CCO)c2ccc3ncc(-c4ccc(N)nc4)nc3c2)c1 [Compound 106] | – | – | –
32 | <5 | 98 | 45.7 | 170 | 5.5 | – | – | CNC(=O)c1cc(-c2cnc3ccc(N(CCNCC(F)(F)F)c4cc(OC)cc(OC)c4)cc3n2)ccn1 [Compound 113] | – | – | –
33 | 5.06 | 166 | 13.5 | 38 | 5.7 | – | – | COc1cc(OC)cc(N(CCCO)c2ccc3ncc(-c4ccc(C)nc4)nc3c2)c1 [Compound 115] | – | – | –
34 | ~5.3 | – | 3.72 | 7.94 | 6.4 | – | – | COc1cc(OC)cc(N(CCNC(C)C)c2ccc3ncc(-c4ccccc4)nc3c2)c1 [Compound 121] | – | – | –
